In publication PMC12636036, “Precise Detection of Surgical Margin in Head and Neck Cancer Using Dual Near-Infrared Imaging of the Tumor and Tumor Microenvironment” (Biomaterials Research, 2025):
pIC50: −log10 of the molar value.

Experiments:
FaDu cells [1] = assay: Cell binding assay; type: cell-based; conditions: OCTL14 20 min, cRGD-ZW800-PEG 30 min, Cy5 / Cy7 fluorescence imaging, n = 6
Protocol: To evaluate the cellular uptake of OCTL14 and cRGD-ZW800-PEG in HNSCC cells, a cell binding assay was done using FaDu cells (HTB-43), purchased from the American Type Culture Collection (Manassas, VA, USA). The cells were first cultured in complete Dulbecco’s modified Eagle’s medium (cDMEM) supplemented with 4.5 g/l glucose, L-glutamine and sodium pyruvate, 10% FBS, and 1% penicillin/streptomycin (Lonza, DE17-602E) at 37 °C in a 5% CO2 humidified chamber. Then, cells were seeded in a 24-well plate at a density of 20,000 cells/well and incubated for 24 h. After discarding old medium and washing twice with Hanks’ balanced salt solution (HBSS), the cells were incubated with OCTL14 for 20 min and with cRGD-ZW800-PEG for 30 min, respectively. The wells were washed 3 times with HBSS before fluorescence images were captured using Cy5 and Cy7 filters on Cytation 5 for OCTL14 and cRGD-ZW800-PEG, respectively.

FaDu cells [2] = assay: Cell viability assay (CCK-8); type: cell-based; conditions: FaDu cells
Protocol: (§1) To evaluate the toxicity of OCTL14 and cRGD-ZW800-PEG on FaDu cells, cell viability was measured by using the Cell Counting Kit-8 (CCK-8, Dojindo Molecular Technologies Inc., Kumamoto, Japan). FaDu cells were seeded at a density of 400 cells/well in a 96-well plate, and then they were then treated with either 2, 5, 10, and 20 μM OCTL14 or 1.6, 3.1, 6.3, 12.5, 25, 50, and 100 μM cRGD-ZW800-PEG in growth medium for 24 h at 37 °C. Then, the dye and old medium were removed from all wells, and new medium were added and incubated for 24 h before 10 μl of CCK-8 solution was added to each well. After 3 h of incubation for OCTL14 and 4 h of incubation for cRGD-ZW800-PEG, absorbance was measured at 450 nm using a microplate reader. The cell survival rate for each dye was calculated using the following equation: Survival rate (%) = (Asample − Ab)/(Ac − Ab) × 100 (Asample, absorbance of sample; Ab, absorbance of blank well; Ac, absorbance of negative control). Experiments were repeated at least 3 times.

FaDu cells [3] = assay: Cellular uptake inhibition assay; type: cell-based; conditions: n = 6
Protocol: To reveal the uptake mechanism of OCTL14 on FaDu cells, a cellular uptake inhibition assay was performed using bromsulphthalein (BSP) (Sigma-Aldrich, St. Louis, MO, USA) and corticosteroid (Sigma-Aldrich). First, the 15,000 cells were plated per well on a 24-well plate. After incubation for 48 h at 37 °C, cells were washed twice with 0.5 ml of HBSS. Then, the cells were pretreated with 250 μM BSP for 5 min or 25 μM corticosteroid for 5 min, before they were incubated with 2 μM OCTL14 for 15 min at 37 °C. To rule out the possible diffusion of OCTL14 across the plasma membrane, FaDu cells were incubated with 2 μM OCTL14 at 4 °C for 15 min. Serum-free medium was added to the control group without any inhibitors. After washing, images were acquired by Cytation 5 using a Cy5 filter. ImageJ software version 1.52p was used to measure the fluorescent intensity of FaDu cells at each condition.

[4] = test system: FaDu tongue cancer xenograft; assay: Intraoperative fluorescence imaging of orthotopic and ectopic FaDu tumors (TBR, histology); type: in vivo, mice; conditions: for Tumor-to-background ratio (TBR): FaDu tongue cancer xenograft, intravenous, within 4 h post-injection, OCTL14 cancerous tissue, cRGD-ZW800-PEG surrounding TME; for Localisation by histopathologic analysis: orthotopic FaDu tongue tumor, 4 h after intravenous injection, frozen sections, NIR and H&E
Protocol: To evaluate the targetability of OCTL14 and cRGD-ZW800-PEG on the orthotopic xenograft model of tongue cancer, 0.5 × 10^6 of FaDu cells in a 30-μl mixture of saline and Matrigel (1:2 ratio) were injected subepithelially into the tip of the tongue using an insulin syringe. When the size of the tongue tumor reached 2 mm, dual fluorescence imaging was performed by injecting cRGD-ZW800-PEG and OCTL14 intravenously 4 h prior to imaging. For the ectopic xenograft model of HNSCC, 0.5 × 10^6 of FaDu cells in a 50-μl mixture of saline and Matrigel (1:2 ratio) were injected subcutaneously on the lower back of the mouse. When the size of the ectopic tumor reached 3 mm, in vivo evaluation of the targetability of the 2 NIR fluorophores was performed. All the animal surgeries were performed under anesthesia with isoflurane.
The real-time fluorescence intensity of OCTL14 and cRGD-ZW800-PEG at the orthotopic and ectopic tumors was compared with the surrounding nontumor region (background signal) to evaluate the TBR. After intraoperative imaging, the fluorescence intensity of the tumor tissue was acquired using ImageJ software and divided by the fluorescence intensity of the surrounding tissue to calculate TBR for both OCTL14 and cRGD-ZW800-PEG. Quantitative time-course assessment of both orthotopic and ectopic tongue cancer was performed for both OCTL14 and cRGD-ZW800-PEG at 1, 4, 6, and 24 h post-intravenous injection. At least 3 head and neck tumor models were evaluated for the quantitative analysis of TBR.
Tumor and TME targetability of OCTL14 and cRGD-ZW800-PEG were confirmed by histology analysis on the orthotopic HNSCC xenograft model. The tumor-bearing tongue was excised from the mouse after in vivo imaging of the tumors at 4 h after intravenous injection of the 2 fluorophores, and embedded in Tissue-Tek optimal cutting temperature compound (Sakura Finetek, Torrance, CA, USA). Frozen sections were acquired and placed on slides with a cut thickness of 10 μm using a cryostat (Leica, Germany). Fluorescence images were taken for both OCTL14 and cRGD-ZW800-PEG using Cy5 filter and Cy7 filter on Cytation 5, respectively. After dual fluorescence imaging, the tissue sections were stained with hematoxylin and eosin (H&E), and bright-field images of the orthotopic tongue cancer were acquired using Cytation 5.

[5] = Photostability under NIR irradiation; conditions: under 630-nm NIR light; 25 μM in 10% FBS; up to 3 h
[6] = Biodistribution and clearance, K-FLARE NIR imaging; conditions: tumor-bearing nude mice; 100 nmol intravenous; 4 h post-injection; SBR relative to muscle
[7] = Serum protein binding assay, rapid equilibrium dialysis; conditions: rapid equilibrium dialysis device; 5 μM; 10% fetal bovine serum; 8 h incubation; absorbance read-out of sample and buffer chamber (Cytation 5)
[8] = not given; remark: listed apart in the source
[9] = not given; remark: listed apart in the source
[10] = Cell viability assay (CCK-8); type: cell-based
Protocol: as §1

Row | SMILES | Uptake in FaDu cells (cell binding assay) (FaDu cells [1]) | pIC50 (FaDu cells [2]; 24 h treatment at 37 °C, then 24 h in new medium, absorbance 450 nm, n = 5, read-out: IC50 (cytotoxicity, CCK-8)) | Concentration up to which little toxicity was shown (FaDu cells [2]; CCK-8 assay, 24 h treatment) | Uptake in cold inhibition test (FaDu cells [3]; 2 μM OCTL14 at 4 °C) | Effect of corticosteroid (OCT inhibitor) on uptake of OCTL14 (FaDu cells [3]; 25 μM corticosteroid pretreatment 5 min, 2 μM OCTL14, 15 min, 37 °C, compared to control) | Effect of BSP (OATP inhibitor) on uptake of OCTL14 (FaDu cells [3]; 250 μM BSP pretreatment 5 min, 2 μM OCTL14, 15 min, 37 °C) | Tumor-to-background ratio (TBR) [4] | Localisation by histopathologic analysis [4] | Photostability: remaining initial absorbance [5] | Biodistribution (SBR of resected organs) [6] | Plasma protein binding, 8 h (%Bound) [7] | absorbance maximum | quantum yield (QY) [8] | fluorescence maximum [9] | pIC50 [10]
1 | Br.C[N+]1=C(/C=C2\C(=O)C(/C=C3/N(CCC[N+](C)(C)C)c4ccc(F)cc4C3(C)C)=C2[O-])C(C)(C)c2ccccc21.[I-] [OCTL14] | significantly high target affinity | 4.38 | ≤ 20 µM | Negative uptake | significantly reduced the uptake | little impact | > 2.0 | effectively imaged the tumor cell itself | over 90% | high SBR in the kidney, gallbladder, and intestine | 4.46% | – | – | – | –
2 | CC1(C)C(=CC=C2CCCC(C=CC3=[N+](CCC[N+](C)(C)C)c4ccc(S(=O)(=O)O)cc4C3(C)C)=C2SCCOCCOCCC(=O)NCCCC[C@@H]2NC(=O)[C@@H](Cc3ccc(O)cc3)NC(=O)[C@H](CC(=O)O)NC(=O)CNC(=O)[C@H](CCCNC(=N)N)NC2=O)N(CCC[N+](C)(C)C)c2ccc(S(=O)(=O)O)cc21 [cRGD-ZW800-PEG] | limited uptake | – | – | – | – | – | > 1.5 | peritumoral tissue was the primary target | – | – | – | 784 nm | 8.52% | 809 nm | 4.34
